ChEMBL document CHEMBL1150914, “New pyrrole alkaloids from Solanum sodomaeum” (J Nat Prod, 1998)
In brackets after ≈: the same amount, converted by molar mass. Activity calls are given as the source filed them. No cut-off for these calls is given here.

Key:
[1] = system: Mycobacterium intracellulare; assay: Antibacterial activity against Mycobacterium intracellular; format: functional
Plasmodium falciparum [2] = assay: Antimalarial activity against Plasmodium falciparum W2; format: functional, organism-based
Plasmodium falciparum [3] = assay: Antimalarial activity against Plasmodium falciparum D6; format: functional, organism-based
Vero = assay: Cytotoxicity against african green monkey Vero cells; format: cell-based; details: chlorocebus sabaeus
Cryptococcus neoformans = assay: Antifungal activity against Cryptococcus neoformans; format: functional, organism-based
Candida albicans = assay: Antifungal activity against Candida albicans; format: functional, organism-based

SMILES | MIC [1] | Activity (Plasmodium falciparum [2]) | Activity (Plasmodium falciparum [3]) | Activity (Vero) | Activity (Cryptococcus neoformans) | Activity (Candida albicans)
O=CN(CCc1cnc[nH]1)c1cc[nH]c1 [SOLSODOMINE A] | 10 µg/mL (≈ 49 µM) | inactive | inactive | Not Active | inactive | inactive
CNCCCN(C=O)c1cc[nH]c1 [SOLSODOMINE B] |  | inactive | inactive | Not Active | inactive | inactive
